Measured values from PMC5974779, “Prediction of Drug-Induced Hepatotoxicity Using Long-Term Stable Primary Hepatic 3D Spheroid Cultures in Chemically Defined Conditions” (Toxicological Sciences, 2018).
Structures can show the parent of a compound that is named as a salt. Where two headings read alike, the source gives them in different places.

Columns and labels:
clinical DILI in man = settings: in vivo; cited from earlier work
PHH 2D sandwich cultures = settings: cited from earlier work; for hepatotoxicity detection in 2D sandwich cultures of PHH: 100× cmax, 24 h, high content imaging; for hepatotoxicity detection in 2D sandwich cultures of PHH / reactive oxygen species levels in 2D sandwich cultures of PHH: ref Xu et al., 2008
[1] = cited from earlier work
[2] = tested on: primary human hepatocytes (PHH) 3D spheroids
[3] = ref DrugBank and Prescribers' Digital Reference database; cited from earlier work
[4] = PHH 2D sandwich cultures, 100x Cmax, ref Xu 2008
[5] = therapeutic total cmax, ref PMID

SMILES	Chemically defined spheroids (this study) 20x [2]	Classified as (clinical DILI in man)	Clinical DILI class (panel heading of Figure 4) (clinical DILI in man)	DILI in vivo (clinical DILI in man)	Type of DILI (clinical DILI in man)	2Dsw (Xu 2008) 100x (PHH 2D sandwich cultures; [4])	Cmax [1, 5]	other results
CCCSc1ccc2nc(NC(=O)OC)[nH]c2c1 [Albendazole]	Negative	POS	Severe DILI	POS	Cholestatic injury or Mixed hepatitis	Positive	900 nM	FDA (0-8) (clinical DILI in man): 7; Suzuki et al. (2010) (clinical DILI in man): 1; Xu et al. (2008) (clinical DILI in man): Positive; hepatotoxicity detection in 2D sandwich cultures of PHH (PHH 2D sandwich cultures): flagged as hepatotoxic; reactive oxygen species levels in 2D sandwich cultures of PHH (PHH 2D sandwich cultures): only slight increases in reactive oxygen species levels; hepatotoxicity evaluation in CD-spheroids [2]: predicted to be DILI negative
NC12CC3CC(CC(C3)C1)C2 [Amantadine]	Negative	NEG	DILI negative	NEG	Non-hepatotoxic		4300 nM	FDA (0-8) (clinical DILI in man): 3; FDA (Severity) (clinical DILI in man): less DILI concern; Xu et al. (2008) (clinical DILI in man): Negative; 2Dsw (Xu 2008) 100x (PHH 2D sandwich cultures): Negative
N=C(N)NC(=O)c1nc(Cl)c(N)nc1N [Amiloride]	Negative	NEG	DILI negative	NEG	Non-hepatotoxic		87 nM	FDA (0-8) (clinical DILI in man): 3; Suzuki et al. (2010) (clinical DILI in man): 2; Xu et al. (2008) (clinical DILI in man): Negative; 2Dsw (Xu 2008) 100x (PHH 2D sandwich cultures): Negative
CC(C)NCC(O)COc1ccc(CC(N)=O)cc1 (stereo not drawn) [Atenolol]						Negative		
CCC(=O)OCC(=O)[C@@]1(OC(=O)CC)[C@@H](C)C[C@H]2[C@@H]3CCC4=CC(=O)C=C[C@]4(C)[C@@]3(Cl)[C@@H](O)C[C@@]21C [Beclomethasone Dipropionate]	Negative						0.15 nM	
CN(C)CCC(c1ccc(Br)cc1)c1ccccn1 (stereo not drawn) [Brompheniramine Maleate]	Negative						27 nM	
CN(C)CCCN1c2ccccc2CCc2ccc(Cl)cc21 [Clomipramine]	Positive							hepatotoxicity detection in 2D sandwich cultures of PHH (PHH 2D sandwich cultures): liver toxicity was not recognized
CN1CCN(C2=Nc3cc(Cl)ccc3Nc3ccccc32)CC1 [Clozapine]							2450 nM	Extent of hepatic metabolism [3]: Extensive
O=c1ccc2ccccc2o1 [Coumarin]	Positive	POS	High DILI concern	POS	Cholestatic injury		10000 nM	
CCN(CC)C(=O)N1CCN(C)CC1 [Diethylcarbamazine]	Negative						1630 nM	
NS(=O)(=O)c1cc(C(=O)O)c(NCc2ccco2)cc1Cl [Furosemide]						Negative		
CN(C)C(=O)C(CCN1CCC(O)(c2ccc(Cl)cc2)CC1)(c1ccccc1)c1ccccc1 [Loperamide]								Cmax ([1]; human, in vivo): 7.8 nM
CN(C)CCN(Cc1cccs1)c1ccccn1 [Methapyrilene]		NEG	DILI negative	NEG	Non-hepatotoxic		170 nM	Extent of hepatic metabolism [3]: Moderate
CCc1c(C)[nH]c2c1C(=O)C(CN1CCOCC1)CC2 (stereo not drawn) [Molindone]	Negative	POS	High DILI concern	POS	Hepatocellular injury	Negative	1540 nM	
COC(=O)C1=C(C)NC(C)=C(C(=O)OCCN(C)Cc2ccccc2)C1c1cccc([N+](=O)[O-])c1 (stereo not drawn) [Nicardipine]							80 nM	
CC(C)NCC(O)COc1cccc2[nH]ccc12 (stereo not drawn) [Pindolol]		NEG	DILI negative	NEG	Non-hepatotoxic	Negative	270 nM	FDA (0-8) (clinical DILI in man): 0; Xu et al. (2008) (clinical DILI in man): Negative
CC(C)NCC(O)COc1cccc2ccccc12 (stereo not drawn) [Propranolol]								Extent of hepatic metabolism [3]: Extensive
CC/C(=C(\c1ccccc1)c1ccc(OCCN(C)C)cc1)c1ccccc1 [Tamoxifen]							160 nM	Extent of hepatic metabolism [3]: Extensive
CN(C)[C@@H]1C(O)=C(C(N)=O)C(=O)[C@@]2(O)C(O)=C3C(=O)c4c(O)cccc4[C@@](C)(O)[C@H]3C[C@@H]12 [Tetracycline]		POS	High DILI concern	POS	Hepatocellular injury			FDA (0-8) (clinical DILI in man): 2; FDA (Severity) (clinical DILI in man): less DILI concern; Guo et al. (2005) (clinical DILI in man): 3; O'Brien et al. (2003) (clinical DILI in man): Moderately; Sakatis et al. (2012) (clinical DILI in man): Hepatotoxic; Suzuki et al. (2010) (clinical DILI in man): 1; Xu et al. (2008) (clinical DILI in man): Positive
CN1CCN(CCCN2c3ccccc3Sc3ccc(C(F)(F)F)cc32)CC1 [Trifluoperazine]	Negative	POS	High DILI concern	POS	Cholestatic injury or Mixed hepatitis	Positive	4.5 nM	FDA (0-8) (clinical DILI in man): 2; FDA (Severity) (clinical DILI in man): less DILI concern; O'Brien et al. (2003) (clinical DILI in man): Moderately; Xu et al. (2008) (clinical DILI in man): Positive; hepatotoxicity detection in 2D sandwich cultures of PHH (PHH 2D sandwich cultures): flagged as hepatotoxic; reactive oxygen species levels in 2D sandwich cultures of PHH (PHH 2D sandwich cultures): only slight increases in reactive oxygen species levels; hepatotoxicity evaluation in CD-spheroids [2]: predicted to be DILI negative
CC(=O)CC(c1ccccc1)c1c(O)c2ccccc2oc1=O (stereo not drawn) [Warfarin]	Negative						4860 nM	

Now from value to molecule, other results behind:

Chemically defined spheroids (this study) 20x [2]	SMILES	Classified as (clinical DILI in man)	Clinical DILI class (panel heading of Figure 4) (clinical DILI in man)	DILI in vivo (clinical DILI in man)	Type of DILI (clinical DILI in man)	2Dsw (Xu 2008) 100x (PHH 2D sandwich cultures; [4])	Cmax [1, 5]	other results
Negative	COc1ccc([C@@H]2Sc3ccccc3N(CCN(C)C)C(=O)[C@@H]2OC(C)=O)cc1 [Diltiazem]						327 nM	
Positive	CCN(CC)C(=S)SSC(=S)N(CC)CC [Disulfiram]						1350 nM	
Negative	C[C@]12CCC(=O)C=C1CC[C@@H]1[C@@H]2[C@@H](O)C[C@@]2(C)[C@H]1CC[C@]2(O)C(=O)CO [Hydrocortisone]	NEG	DILI negative	NEG	Non-hepatotoxic	Negative	840 nM	FDA (0-8) (clinical DILI in man): 0; Xu et al. (2008) (clinical DILI in man): Negative
Negative	N[C@@H](Cc1ccc(O)c(O)c1)C(=O)O [Levodopa]					Negative	6850 nM	
Positive	NCCCC[C@H](N[C@@H](CCc1ccccc1)C(=O)O)C(=O)N1CCC[C@H]1C(=O)O [Lisinopril]						660 nM	hepatotoxicity detection in 2D sandwich cultures of PHH (PHH 2D sandwich cultures): liver toxicity was not recognized
Positive	Cc1cccc(C)c1OCC(C)N (stereo not drawn) [Mexiletine]	POS	High DILI concern	POS	Hepatocellular injury or Mixed hepatitis		35000 nM	FDA (0-8) (clinical DILI in man): 3; FDA (Severity) (clinical DILI in man): less DILI concern; Suzuki et al. (2010) (clinical DILI in man): 1; Xu et al. (2008) (clinical DILI in man): Positive; 2Dsw (Xu 2008) 100x (PHH 2D sandwich cultures): Positive
Negative	Clc1ccc(COC(Cn2ccnc2)c2ccc(Cl)cc2Cl)c(Cl)c1 (stereo not drawn) [Miconazole]						24 nM	
Positive	COCCOC(=O)C1=C(C)NC(C)=C(C(=O)OC(C)C)C1c1cccc([N+](=O)[O-])c1 (stereo not drawn) [Nimodipine]					Positive	110 nM	
Negative	CC(N/C(=N\C#N)Nc1ccncc1)C(C)(C)C (stereo not drawn) [Pinacidil]	NEG	DILI negative	NEG	Non-hepatotoxic	Negative	290 nM	
Negative	CC(=O)Nc1ccc(OCC(O)CNC(C)C)cc1 (stereo not drawn) [Practolol]						18800 nM	
Positive	C=C[C@H]1C[N@@]2CC[C@H]1C[C@@H]2[C@@H](O)c1ccnc2ccc(OC)cc12 [Quinidine]						8660 nM	2Dsw (Xu 2008) 100x (PHH 2D sandwich cultures): Positive
Positive	O=C(O)c1cc(/N=N/c2ccc(S(=O)(=O)Nc3ccccn3)cc2)ccc1O [Sulfasalazine]						15100 nM	
